pIC50: −log10 of the molar value.
How the values were obtained:
[1] = target: PI3-kinase p110-alpha/p85-alpha (Homo sapiens, UniProt P42336); assay: null: The kinase activity was measured by using the commercial ADP Hunter Plus assay available from DiscoveRx (#33-016), which is a homogeneous assay to measure the accumulation of ADP, a universal product of kinase activity. […] The reaction was carried out for 1 hour at 25° C. Reagent A and B were sequentially added to the wells and plates were incubated for 30 min at 37° C. Fluorescence counts were read in a Victor instrument (Perkin Elmer) with the recommended settings (544 and 580 nm as excitation and emission wavelengths, respectively).; format: protein-complex assay
[2] = target: DNA-dependent protein kinase catalytic subunit (Homo sapiens, UniProt P78527); assay: ADP Hunter Plus Assay: The kinase activity was measured by using the commercial ADP Hunter Plus assay available from DiscoveRx (#90-0083), which is a homogeneous assay to measure the accumulation of ADP, a universal product of kinase activity. The enzyme, DNA-PK was purchased from Promega (#V5811). The assay was done following the manufacturer recommendations with slight modifications: Mainly the kinase buffer was replace by 15 mM HEPES, pH 7.5, 10 mM MgCl2, 20 mM NaCl, 1 mM EGTA, 0.1 mg/mL BGG, 0.02% Tween 20. The DNA-PK was assayed in a titration experiment to determine the optimal protein concentration for the inhibition assay. To calculate the […] of the Compounds, serial 1:3 dilutions of the compounds were added to the enzyme at a fixed concentration (2 U/uL). The enzyme was preincubated with the inhibitor and 200 uM DNA substrate and then ATP was added to a final 75 uM concentration. Reaction was carried out for 1 hour at 37° C. Reagent A and B were sequentially added to the wells and plates were incubated for 30 min at RT. Fluorescence counts were read in a EnVision instrument (Perkin Elmer) with the recommended settings (550 and 590 nm as excitation and emission wavelengths, respectively).
DNA-dependent protein kinase catalytic subunit, sequence (P78527 whole entry): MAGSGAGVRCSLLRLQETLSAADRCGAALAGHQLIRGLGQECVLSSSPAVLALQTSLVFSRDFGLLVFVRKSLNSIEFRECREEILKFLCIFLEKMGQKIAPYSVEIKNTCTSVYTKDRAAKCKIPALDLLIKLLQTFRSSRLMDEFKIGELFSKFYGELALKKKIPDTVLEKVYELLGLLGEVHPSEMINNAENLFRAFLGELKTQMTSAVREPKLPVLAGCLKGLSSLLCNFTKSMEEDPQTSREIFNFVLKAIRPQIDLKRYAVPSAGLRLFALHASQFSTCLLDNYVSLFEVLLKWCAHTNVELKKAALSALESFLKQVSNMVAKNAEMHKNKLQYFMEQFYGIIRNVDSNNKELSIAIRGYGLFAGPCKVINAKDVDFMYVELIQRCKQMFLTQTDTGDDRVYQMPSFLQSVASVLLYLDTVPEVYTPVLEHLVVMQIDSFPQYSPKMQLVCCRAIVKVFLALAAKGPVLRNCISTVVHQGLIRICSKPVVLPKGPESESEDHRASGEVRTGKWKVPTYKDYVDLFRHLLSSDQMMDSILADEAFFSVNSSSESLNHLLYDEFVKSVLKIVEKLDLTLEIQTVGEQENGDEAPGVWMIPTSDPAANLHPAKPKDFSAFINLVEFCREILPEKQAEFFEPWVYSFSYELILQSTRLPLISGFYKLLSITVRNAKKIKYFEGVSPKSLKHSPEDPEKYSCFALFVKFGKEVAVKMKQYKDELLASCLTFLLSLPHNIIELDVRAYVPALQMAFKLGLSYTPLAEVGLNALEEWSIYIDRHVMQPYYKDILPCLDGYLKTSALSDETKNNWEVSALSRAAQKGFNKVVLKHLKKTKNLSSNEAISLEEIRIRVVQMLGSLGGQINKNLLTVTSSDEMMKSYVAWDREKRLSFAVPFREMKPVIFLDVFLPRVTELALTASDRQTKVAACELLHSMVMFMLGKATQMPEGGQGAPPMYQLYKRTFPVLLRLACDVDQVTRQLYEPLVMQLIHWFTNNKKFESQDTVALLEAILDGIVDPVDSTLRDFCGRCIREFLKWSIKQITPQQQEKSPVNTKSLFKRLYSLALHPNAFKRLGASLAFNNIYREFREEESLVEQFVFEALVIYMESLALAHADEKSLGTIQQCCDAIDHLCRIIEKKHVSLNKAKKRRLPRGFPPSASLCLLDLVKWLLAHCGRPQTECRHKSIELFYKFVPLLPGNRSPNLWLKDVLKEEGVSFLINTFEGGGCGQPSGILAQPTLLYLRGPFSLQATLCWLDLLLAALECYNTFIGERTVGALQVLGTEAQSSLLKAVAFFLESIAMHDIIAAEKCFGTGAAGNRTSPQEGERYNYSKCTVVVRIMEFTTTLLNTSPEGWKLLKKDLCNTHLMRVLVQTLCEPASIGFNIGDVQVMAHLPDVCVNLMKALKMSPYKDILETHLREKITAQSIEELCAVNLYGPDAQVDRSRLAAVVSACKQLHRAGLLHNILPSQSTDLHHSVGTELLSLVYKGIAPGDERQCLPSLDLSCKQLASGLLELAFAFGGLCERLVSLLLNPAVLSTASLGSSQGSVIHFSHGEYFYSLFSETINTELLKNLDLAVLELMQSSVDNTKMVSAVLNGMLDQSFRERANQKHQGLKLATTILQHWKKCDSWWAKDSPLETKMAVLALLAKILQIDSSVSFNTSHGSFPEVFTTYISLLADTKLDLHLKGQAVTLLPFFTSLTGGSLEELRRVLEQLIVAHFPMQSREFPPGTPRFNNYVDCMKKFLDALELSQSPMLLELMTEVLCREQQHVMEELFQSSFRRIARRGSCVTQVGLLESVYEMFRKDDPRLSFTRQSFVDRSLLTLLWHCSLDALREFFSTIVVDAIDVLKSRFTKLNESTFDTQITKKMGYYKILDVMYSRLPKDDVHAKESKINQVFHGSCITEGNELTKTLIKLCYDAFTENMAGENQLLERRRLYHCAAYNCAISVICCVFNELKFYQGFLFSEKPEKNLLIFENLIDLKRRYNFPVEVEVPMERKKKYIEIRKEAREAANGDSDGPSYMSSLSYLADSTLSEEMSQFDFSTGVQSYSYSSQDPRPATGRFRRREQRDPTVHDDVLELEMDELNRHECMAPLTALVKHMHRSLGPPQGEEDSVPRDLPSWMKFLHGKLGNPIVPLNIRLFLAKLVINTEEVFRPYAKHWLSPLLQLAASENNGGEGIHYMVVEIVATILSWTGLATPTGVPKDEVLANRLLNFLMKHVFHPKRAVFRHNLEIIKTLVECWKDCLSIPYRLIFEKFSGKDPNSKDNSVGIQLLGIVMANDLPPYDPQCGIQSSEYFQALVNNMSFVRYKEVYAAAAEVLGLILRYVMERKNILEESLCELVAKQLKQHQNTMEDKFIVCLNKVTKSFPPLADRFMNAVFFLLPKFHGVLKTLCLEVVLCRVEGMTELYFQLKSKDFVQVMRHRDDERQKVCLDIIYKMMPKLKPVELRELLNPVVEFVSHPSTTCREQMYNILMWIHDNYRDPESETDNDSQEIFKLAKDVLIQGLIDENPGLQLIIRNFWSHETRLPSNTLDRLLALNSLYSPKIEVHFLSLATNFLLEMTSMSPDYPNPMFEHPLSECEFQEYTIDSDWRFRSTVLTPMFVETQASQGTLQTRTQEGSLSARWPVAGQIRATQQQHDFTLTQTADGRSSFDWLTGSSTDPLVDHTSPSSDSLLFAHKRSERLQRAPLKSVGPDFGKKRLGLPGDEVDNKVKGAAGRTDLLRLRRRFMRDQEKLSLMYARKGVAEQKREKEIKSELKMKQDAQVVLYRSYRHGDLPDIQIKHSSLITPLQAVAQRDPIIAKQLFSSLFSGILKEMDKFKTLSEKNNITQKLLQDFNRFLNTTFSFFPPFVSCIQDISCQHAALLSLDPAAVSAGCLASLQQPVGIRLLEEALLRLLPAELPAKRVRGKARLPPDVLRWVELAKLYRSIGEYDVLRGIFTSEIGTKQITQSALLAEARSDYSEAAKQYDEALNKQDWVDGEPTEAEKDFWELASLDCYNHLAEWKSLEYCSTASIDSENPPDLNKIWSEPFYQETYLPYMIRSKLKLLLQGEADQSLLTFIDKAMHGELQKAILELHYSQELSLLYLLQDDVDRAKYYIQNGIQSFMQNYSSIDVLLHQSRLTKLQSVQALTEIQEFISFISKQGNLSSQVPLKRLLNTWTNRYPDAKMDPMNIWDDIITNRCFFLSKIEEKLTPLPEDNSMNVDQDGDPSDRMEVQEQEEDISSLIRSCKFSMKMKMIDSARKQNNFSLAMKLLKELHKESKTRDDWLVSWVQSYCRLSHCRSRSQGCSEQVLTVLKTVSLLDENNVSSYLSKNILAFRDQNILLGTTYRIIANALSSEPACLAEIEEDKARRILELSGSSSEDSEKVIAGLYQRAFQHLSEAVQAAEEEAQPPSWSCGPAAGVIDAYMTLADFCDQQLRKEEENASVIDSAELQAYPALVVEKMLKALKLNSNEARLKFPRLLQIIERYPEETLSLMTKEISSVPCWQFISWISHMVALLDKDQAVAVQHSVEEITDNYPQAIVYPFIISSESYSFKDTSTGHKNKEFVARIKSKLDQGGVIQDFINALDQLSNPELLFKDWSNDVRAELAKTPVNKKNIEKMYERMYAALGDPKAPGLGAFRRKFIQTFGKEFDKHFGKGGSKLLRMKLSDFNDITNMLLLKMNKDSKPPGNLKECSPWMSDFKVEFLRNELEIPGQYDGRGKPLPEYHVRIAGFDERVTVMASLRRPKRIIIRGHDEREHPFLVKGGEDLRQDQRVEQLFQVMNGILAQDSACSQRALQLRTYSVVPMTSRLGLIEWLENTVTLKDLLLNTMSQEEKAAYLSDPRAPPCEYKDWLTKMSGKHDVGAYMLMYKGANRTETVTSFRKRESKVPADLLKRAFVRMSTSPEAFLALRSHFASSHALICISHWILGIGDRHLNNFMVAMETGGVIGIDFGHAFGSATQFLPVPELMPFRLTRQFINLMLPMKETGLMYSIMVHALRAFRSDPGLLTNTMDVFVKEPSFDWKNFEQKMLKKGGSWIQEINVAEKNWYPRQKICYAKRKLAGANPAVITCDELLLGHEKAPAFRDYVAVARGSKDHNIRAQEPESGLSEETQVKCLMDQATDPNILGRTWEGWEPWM

Row | Structure (SMILES) | pIC50 [1] | pIC50 [2]
1 | COc1cc(-c2nc3c(c(C4(S(C)(=O)=O)CCOCC4)n2)OCC2COCCN32)c2cc[nH]c2c1 (stereo not given) | 5.30 | 5.00
2 | CN1CCC(c2nc(-c3cccc4[nH]ccc34)nc3c2OCC2COCCN32)(S(C)(=O)=O)CC1 (stereo not given) | 4.90 | ≤ 4.60
3 | CS(=O)(=O)Cc1nc(-c2cccc3[nH]ccc23)nc2c1OCC1COCCN21 (stereo not given) | 5.18 | 5.00
4 | CC(C)(c1nc(-c2ccnc3[nH]ccc23)nc2c1OCC1COCCN21)S(C)(=O)=O (stereo not given) | 6.17 | 5.55
5 | CC(C)(c1nc(-c2c(F)ccc3[nH]ccc23)nc2c1OCC1COCCN21)S(C)(=O)=O (stereo not given) | 5.10 | 
6 | CNc1nc2cc(Cl)ccc2n1-c1nc2c(c(C3(S(C)(=O)=O)CCC3)n1)OC[C@@H]1COCCN21 | ≤ 4.30 | 5.00
7 | CC(C)(c1nc(-c2cccc3[nH]ccc23)nc2c1OCC[C@H]1COCCN21)S(C)(=O)=O | 4.71 | 
8 | CS(=O)(=O)C1(c2nc(-c3cccc4[nH]ccc34)nc3c2OCC2COCCN32)CCOCC1 (stereo not given) | 4.88 | 
9 | CC(C)(C#N)c1nc(-c2cccc3[nH]ccc23)nc2c1OCC1COCCN21 (stereo not given) | 5.78 | 5.00
10 | CC(C)(c1nc(-c2cccc3[nH]ccc23)nc2c1OCC1COCCN21)S(=O)(=O)C1CC1 (stereo not given) | 5.62 | 
11 | CS(=O)(=O)c1cccc(-c2nc(-c3cccc4[nH]ccc34)nc3c2OCC2COCCN32)c1 (stereo not given) | 4.97 | 5.30
12 | CNc1nc2ccc(Cl)cc2n1-c1nc2c(c(C3(S(C)(=O)=O)CCC3)n1)OC[C@@H]1COCCN21 | ≤ 4.30 | 5.00
13 | CS(=O)(=O)C1(c2nc(-c3cccc4[nH]ccc34)nc3c2OCC[C@@H]2COCCN32)CCOCC1 | ≤ 4.30 | ≤ 4.60
14 | CCCNc1nc2ccccc2n1-c1nc2c(c(C(C)(C)S(C)(=O)=O)n1)OC[C@@H]1COCCN21 | 5.20 | 5.18
15 | CNc1nc2ccccc2n1-c1nc2c(c(C(C)(C)S(C)(=O)=O)n1)OCC1COCCN21 (stereo not given) | 5.55 | 
16 | CCNc1nc2ccccc2n1-c1nc2c(c(C(C)(C)S(C)(=O)=O)n1)OC[C@@H]1COCCN21 | 5.58 | 6.71
17 | CC(C)Nc1nc2ccccc2n1-c1nc2c(c(C(C)(C)S(C)(=O)=O)n1)OC[C@@H]1COCCN21 | 5.18 | 5.37
18 | CS(=O)(=O)C1(c2nc(-c3cccc4[nH]ccc34)nc3c2OC[C@@H]2COCCN32)CCC1 | 5.50 | 5.00
19 | Cc1cc2c(-c3nc4c(c(C5(S(C)(=O)=O)CCOCC5)n3)OCC3COCCN43)cccc2[nH]1 (stereo not given) | 4.99 | ≤ 4.60
20 | C[S@TB17](=O)(=O)Nc1nc(-c2cccc3[nH]ccc23)nc2c1OCC1COCCN21 (stereo not given) | 5.16 | 5.00
21 | CS(=O)(=O)C1(c2nc(-c3cncc4[nH]ccc34)nc3c2OCC2COCCN32)CCOCC1 (stereo not given) | 5.70 | ≤ 4.60
22 | C[S@TB17](=O)(=O)C1(c2nc(-c3cc(F)cc4[nH]ccc34)nc3c2OCCC2COCCN32)CCOCC1 (stereo not given) | < 5.00 | ≤ 4.60

Row | Structure (SMILES) | pIC50 [1] | pIC50 [2]
23 | CC(C)(O)c1nc(-c2cccc3[nH]ccc23)nc2c1OCC1COCCN21 (stereo not given) | 5.62 | 5.14
24 | CS(=O)(=O)C1(c2nc(-c3cc(F)cc4[nH]ccc34)nc3c2OCC2COCCN32)CCOCC1 (stereo not given) | 5.22 | 5.00
25 | COc1cc(-c2nc3c(c(C4([S@TB1](C)(=O)=O)CCOCC4)n2)OCCC2COCCN32)c2cc[nH]c2c1 (stereo not given) | 4.63 | ≤ 4.60
26 | COc1ccc(-c2nc3c(c(C4(S(C)(=O)=O)CCOCC4)n2)OCC2COCCN32)c2cc[nH]c12 (stereo not given) | 4.77 | ≤ 4.60
27 | O=S(=O)(Cc1nc(-c2cccc3[nH]ccc23)nc2c1OCC1COCCN21)C(F)(F)F (stereo not given) | 4.83 | ≤ 4.60
28 | CS(=O)(=O)C1(c2nc(-c3cccc4[nH]ccc34)nc3c2OC[C@H]2COCCN32)CCOCC1 | 4.94 | 
29 | CNc1nc2ccccc2n1-c1nc2c(c(C3(S(C)(=O)=O)CCOCC3)n1)OCC1COCCN21 (stereo not given) | ≤ 4.30 | 5.00
30 | CNc1nc2ccccc2n1-c1nc2c(c(C(C)(C)[S@TB1](C)(=O)=O)n1)OCCC1COCCN21 (stereo not given) |  | 5.73
31 | CS(=O)(=O)C1(c2nc(-c3c(F)ccc4[nH]ccc34)nc3c2OCC2COCCN32)CCOCC1 (stereo not given) | 4.68 | 5.00
32 | CS(=O)(=O)C1(c2nc(-c3cccc4[nH]ccc34)nc3c2OC[C@@H]2COCCN32)CCNCC1 | 5.70 | 5.31
33 | CC(C)(O)c1nc(-c2cc(F)cc3[nH]ccc23)nc2c1OC[C@@H]1COCCN21 | 5.64 | 6.05
34 | CNc1nc2ccccc2n1-c1nc2c(c(C(C)(C)S(C)(=O)=O)n1)OC[C@@H]1COCCN21 | 5.72 | 5.82
35 | CS(=O)(=O)C1(c2nc(-c3cccc4[nH]ccc34)nc3c2OCC2COCCN32)CC1 (stereo not given) | 5.60 | ≤ 4.60
36 | CC1(c2nc(-c3cccc4[nH]ccc34)nc3c2OCC2COCCN32)CCCS1(=O)=O (stereo not given) | 5.16 | 5.00
37 | CC(C)(c1nc(-c2cccc3[nH]ccc23)nc2c1OCC1COCCN21)S(C)(=O)=O (stereo not given) | 5.77 | 4.76
38 | c1cc(-c2nc(-c3cccc4[nH]ccc34)c3c(n2)N2CCOCC2CO3)c2cc[nH]c2c1 (stereo not given) | 5.18 | 5.00
39 | CS(=O)(=O)C1(c2nc(-c3cccc4[nH]ccc34)nc3c2OC[C@@H]2COCCN32)CCOCC1 | 5.31 | 
40 | CNc1nc2ccccc2n1-c1nc2c(c(C(C)(C)O)n1)OCC1COCCN21 (stereo not given) | 5.66 | 5.50
41 | CC(C)(c1nc(-c2cccc3[nH]ncc23)nc2c1OC[C@H]1COCCN21)S(C)(=O)=O | 6.40 | 5.38
42 | CCOC(=O)N1CCC(c2nc(-c3cccc4[nH]ccc34)nc3c2OC[C@@H]2COCCN32)(S(C)(=O)=O)CC1 | 5.13 | 5.00
43 | CNc1nc2ccccc2n1-c1nc2c(c(C3(S(C)(=O)=O)CCOCC3)n1)OCCC1COCCN21 (stereo not given) | ≤ 4.30 | 5.00
44 | CS(=O)(=O)C1(c2nc(-c3ccnc4[nH]ccc34)nc3c2OCC2COCCN32)CCOCC1 (stereo not given) | 5.07 | 5.00

From ChEMBL document CHEMBL3886972, “Chemical entities” (2016)
